Results published in patent publication EP0033241A2, “Pharmaceutical compositions for rectal administration” (priority 1980, dated 1981).
Structures can show the parent of a compound that is named as a salt.

Tests used:
[1] = in vivo; design: species or system SD strain male rats; details: rat
Excerpt: The numeral 25 in the term "POE (25)" designates the average number of added moles of POE.

[2] = AUC 0 to 4 hours of cefsulodin (sodium) suppositories with polyoxyethylene cholesterol ethers (Experiment Example 4); assay type: in vivo, rats; details: rat, plasma, 20 mg/kg, rectal suppository 50 mg, 10 % cefsulodin (sodium), Witepsol H-5
Procedure: The anuses were closed with an adhesive agent, and blood samples were taken from the tail veins with time elapsed to determine quantitatively the plasma levels of the compounds having a β-lactam ring by means of the biological assay method.
By incorporating 10 % of cefsulodin (sodium) and 5 % of polyoxyethylene cholesterol ether as shown in Table 5 into Witepsol H-5 used as an excipient, suppositories (50 mg each) were prepared, and administered rectally to rats, in the same manner as in Experiment Example 1, to determine quantitatively the concentration levels of the drug substance in plasma, thereby calculating AUC over the period of 0 to 4 hours. The dosage was 20 mg/Kg.

[3] = in vivo; details: rat, im, 50 mg/kg, AUC^°6

Row | Compound | AUC ([1]; im) | also measured
1 | Cc1nnc(SCC2=C(C(=O)O)N3C(=O)[C@@H](NC(=O)Cn4cnnn4)[C@H]3SC2)s1 [Cefazolin, cefazolin] | 348000 ng·h/mL | 
2 | NC(=O)c1cc[n+](CC2=C(C(=O)O)N3C(=O)[C@@H](NC(=O)[C@@H](c4ccccc4)S(=O)(=O)[O-])[C@H]3SC2)cc1 [Cefsulodin sodium, 3-(4-carbamoyl-l-pyridinio-methyl)-7β-(D-α-sulfophenylacetamide)-ceph-3-em-4-carboxylate monosodium salt] | 54000 ng·h/mL | AUC(0-t) at 4 h ([2]; 5 % POE (10) cholesterol ether): 30400 ng·h/mL; AUC(0-t) at 4 h ([2]; 5 % POE (20) cholesterol ether): 43000 ng·h/mL; AUC(0-t) at 4 h ([2]; 5 % POE (25) cholesterol ether): 35900 ng·h/mL; AUC(0-t) at 4 h ([2]; 5 % POE (30) cholesterol ether): 37900 ng·h/mL; AUC(0-t) at 4 h ([2]; no polyoxyethylene cholesterol ether (None)): 500 ng·h/mL
3 | CO/N=C(\C(=O)N[C@@H]1C(=O)N2C(C(=O)O)=C(CSc3nnnn3C)CS[C@H]12)c1csc(N)n1 [Cefmenoxime (1/2HCl), 7β-[2-(2-aminothiazol-4-yl)-[Z]-2-methoxyimino-acetamide]-3-[(1-methyl-1H-tetrazol-5-yl)thiomethyl]-ceph-3-em-4-carboxylate.l/2hydrochloride] | 190000 ng·h/mL | AUC at 6 h [3]: 190 µg·h/mL
4 | CC1(C)S[C@@H]2[C@H](NC(=O)[C@H](N)c3ccccc3)C(=O)N2[C@H]1C(=O)O [Ampicillin, ampicillin] | 14800 ng·h/mL | 

Second part, led by results:

Row | AUC ([1]; im) | Compound | also measured
5 | 38700 ng·h/mL | CN(C)CCn1nnnc1SCC1=C(C(=O)O)N2C(=O)[C@@H](NC(=O)Cc3csc(N)n3)[C@H]2SC1 [Cefotiam, cefotiam] | 
6 | 77800 ng·h/mL | CO/N=C(\C(=O)N[C@@H]1C(=O)N2C(C(=O)O)=CCS[C@H]12)c1csc(N)n1 [FK-749, cephthizoxime] | 
7 | 192000 ng·h/mL | CC1(C)S[C@@H]2[C@H](NC(=O)C(c3ccccc3)S(=O)(=O)O)C(=O)N2[C@H]1C(=O)O (stereo partly shown) [Sulbenicillin, sulbenicillin] | AUC [1]: 92800 ng·h/mL
8 | 105000 ng·h/mL | CC1(C)S[C@@H]2[C@H](/N=C/N3CCCCCC3)C(=O)N2[C@H]1C(=O)O [Mecillinam, 6a-[(hexahydro-lH-azepin-l-yl)-methyleneamino]penicillanic acid.sodium salt] | 
9 | 144000 ng·h/mL | CO/N=C(\C(=O)N[C@@H]1C(=O)N2C(C(=O)O)=C(COC(C)=O)CS[C@H]12)c1csc(N)n1 [HR-756, cefotaxime] | 
